Test results as given in patent US10577373B2, “TYK2 inhibitors and uses thereof” (Nimbus Lakshmi, Inc., priority 2017, dated 2020).
Where two headings read alike, the source gives them in different places.

Legend:
[1] = system: IL-12 induced STAT4 phophorylation mediated by Tyk2/JAK2 (heterodimeric complex); experiment: IL-12 Induced pSTAT4 in Human PBMC; assay type: cell-based; details: 1.7 ng/mL IL-12
Source text: The IL-12 Induced pSTAT4 assay evaluates the inhibition of IL-12 induced STAT4 phophorylation mediated by Tyk2/JAK2 (heterodimeric complex).

[2] = system: GM-CSF induced STAT5 phosphorylation mediated by the JAK2/JAK2 homdimeric complex; experiment: GM-CSF Induced pSTAT5 in Human PBMC; details: GM-CSF 5 ng/mL for 20 minutes, pSTAT5
Source text: Human PBMC are isolated from buffy coat and are stored frozen for assays as needed.

[3] = Homo sapiens, PBMC, 20 min, read-out: PBMC_GMCSF_pSTAT5 IC50, human PBMC

Compound `[2H]C([2H])([2H])Oc1ncccc1Nc1cc(NC)n2ncc(C(=O)N[C@@H]3CC[C@@H]3O)c2n1` (stereo in doubt) [I-391, N-(2-hydroxycyclobutyl)-5-((2-(methoxy-d3)pyridin-3-yl)amino)-7-(methylamino)pyrazolo[1,5-a]pyrimidine-3-carboxamide] has an IC50 [1] of under 100 nM and an IC50 ([2]; read-out: PBMC_GMCSF_pSTAT5 IC50, human PBMC) of over 50000 nM.

`CNc1cc(Nc2cccn(-c3cnc(C(=O)N(C)C)cn3)c2=O)nc2c(C(=O)NC3CC3)cnn12` [I-127, N-cyclopropyl-5-((1-(5-(dimethylcarbamoyl)pyrazin-2-yl)-2-oxo-1,2-dihydropyridin-3-yl)amino)-7-(methylamino)pyrazolo[1,5-a]pyrimidine-3-carboxamide] gave an IC50 [1] of under 100 nM and an IC50 [2, 3] of over 12500 nM.

With `[2H]C([2H])([2H])Oc1ncc(F)cc1Nc1cc(NC)n2ncc(C(=O)NC3CCC3)c2n1` [I-288] the IC50 [1] was under 100 nM and the IC50 [2, 3] was over 2500 nM.

For `CNc1cc(Nc2cc(Cl)cn([C@H]3CCCN(C)C3)c2=O)nc2c(C(=O)N[C@@H]3C[C@@H]3F)cnn12` [I-854], the IC50 [1] was under 100 nM and the IC50 [2, 3] was over 50000 nM.

With `CNc1cc(Nc2cccn(-c3cn(C)nc3F)c2=O)nc2c(C(=O)N[C@H]3C[C@H]3F)cnn12` [I-607] the IC50 [1] was under 100 nM and the IC50 [2, 3] was over 50000 nM.

`CNc1cc(Nc2cccn(-c3ccccn3)c2=O)nc2c(C(=O)N[C@H]3CC[C@H]3O)cnn12` [I-805] showed an IC50 [1] of under 100 nM and an IC50 [2, 3] of over 12500 nM.

In the case of `CNc1cc(Nc2cccnc2OCCOC)nc2c(C(=O)N[C@H]3C[C@H]3F)cnn12` [I-220], the IC50 [1] is reported as under 100 nM and the IC50 [2, 3] is reported as over 12500 nM.

`CNc1cc(Nc2cccnc2OC)nc2c(C(=O)N[C@@H]3CCC[C@H]3O)cnn12` [I-423, N-((1R,2R)-2-hydroxycyclopentyl)-5-((2-methoxypyridin-3-yl)amino)-7-(methylamino)pyrazolo[1,5-a]pyrimidine-3-carboxamide] showed an IC50 [1] of under 100 nM and an IC50 [2, 3] of over 50000 nM.

`CNc1cc(Nc2cccc([C@@H]3CCCOC3)n2)nc2c(C(=O)N[C@@H]3CC[C@H]3O)cnn12` [I-665] gave an IC50 [1] of under 100 nM and an IC50 [2, 3] of over 2500 nM.

Compound `CNc1cc(Nc2cccnc2OC)nc2c(C(=O)NO)cnn12` [I-710, N-hydroxy-5-((2-methoxypyridin-3-yl)amino)-7-(methylamino)pyrazolo[1,5-a]pyrimidine-3-carboxamide] has an IC50 [1] of 100 to 500 nM and an IC50 [2, 3] of over 50000 nM.

Compound `CNc1cc(Nc2cccn(-c3ncc(OC)cc3F)c2=O)nc2c(C(=O)N[C@H]3C[C@H]3F)cnn12` [I-673] has an IC50 [1] of under 100 nM and an IC50 [2, 3] of over 50000 nM.

With `CNc1cc(-c2c[nH]c3c(C)cc(C)cc23)nc2c(C(N)=O)cnn12` [I-36, 5-(5,7-dimethyl-1H-indol-3-yl)-7-(methylamino)pyrazolo[1,5-a]pyrimidine-3-carboxamide] the IC50 [1] was under 100 nM and the IC50 [2, 3] was over 12500 nM.

With `CNc1cc(Nc2cccn(-c3ncco3)c2=O)nc2c(C(=O)N[C@H]3C[C@H]3F)cnn12` [I-716] the IC50 [1] was under 100 nM and the IC50 [2, 3] was over 2500 nM.

`CNc1cc(Nc2cc(C)cnc2OCCOC)nc2c(C(=O)NC3CCC3)cnn12` [I-282] gave an IC50 [1] of 100 to 500 nM and an IC50 [2, 3] of over 2500 nM.

Compound `CNc1cc(Nc2cccn(-c3cc(C)nn3C)c2=O)nc2c(C(=O)NC3CCC3)cnn12` [I-342] has an IC50 [1] of under 100 nM and an IC50 [2, 3] of over 12500 nM.

For `CNc1cc(Nc2cc(F)cn(-c3cnn(C)c3)c2=O)nc2c(C(=O)N[C@H]3C[C@H]3F)cnn12` [I-381], the IC50 [1] was under 100 nM and the IC50 [2, 3] was over 12500 nM.

Work on `CNc1cc(-c2cn(C(C)C)c3ncccc23)nc2c(C(=O)N[C@@H]3CC[C@@H]3O)cnn12` [I-578] yielded an IC50 [1] of under 100 nM and an IC50 [2, 3] of over 50000 nM.

`CNc1cc(Nc2cc(C)cn(-c3cnn(C)c3)c2=O)nc2c(C(N)=O)cnn12` [I-31] gave an IC50 [1] of 100 to 500 nM and an IC50 [2, 3] of over 300 nM.

Work on `CNc1cc(Nc2cc(Cl)cn(C3CCCOC3)c2=O)nc2c(C(=O)N[C@H]3C[C@H]3F)cnn12` (stereo partly drawn) [I-693] yielded an IC50 [1] of under 100 nM and an IC50 [2, 3] of over 50000 nM.

`CNc1cc(Nc2cccn([C@H]3CC[C@@H](N4CCOCC4)CC3)c2=O)nc2c(C(=O)NC3CCC3)cnn12` [I-182] was tested, and the IC50 [1] was under 100 nM and the IC50 [2, 3] was over 2500 nM.

In the case of `CNc1cc(Nc2cc(C)cn(-c3cnn(C)c3)c2=O)nc2c(C(=O)N[C@H]3C[C@H]3F)cnn12` [I-235], the IC50 [1] is reported as under 100 nM and the IC50 [2, 3] is reported as over 2500 nM.
